Results from patent publication US20200216863A1, “Use of renewable deep eutectic solvents in a one-pot process for a biomass” (National Technology & Engineering Solutions of Sandia, LLC, priority 2019, published 2020).

Experiments:
[1] = tested on: yeast; details: cited from earlier work
[2] = tested on: yeast strain JBEI-9009; format: cell-based
Description: Next, in order to test the feasibility of C5/C6 sugar cofermentation and thus to further improve the economic feasibility of the process,(22) the yeast strain JBEI-9009, developed in our lab for optimized xylose consumption,(30) was used for further experiments.
(§1) The effect of DES-Ch12 supplementation on growth and carbon utilization of JBEI-9009 was analyzed in a plate reader-based assay. […] To test if the presence of DES-Ch12 in the media impairs the ability of the strain JBEI-9009 to efficiently utilize xylose, the strain was cultivated in CSM media with 2 wt % xylose containing 10 wt % Ch12 and final samples were taken for HPLC measurements.

[3] = tested on: unmodified control strain; format: cell-based, yeast
Description: as §1

O=C(O)c1ccccc1 [Benzoic acid]
concentration required for inhibition of yeast growth [1]: ~1000 µM

O=Cc1ccc(CO)o1 [HMF, hydroxymethylfurfural]
concentration with significant inhibition of yeast growth [1]: 3000 µg/mL | ethanol yield in presence of inhibitor [1]: 89%

O=C(O)/C=C/c1ccc(O)cc1 [p-coumaric acid]
concentration required for inhibition of yeast growth [1]: ~1000 µM

[Ch][Cl]-2glycerol [Ch12]
growth tolerance [2]: without showing significant growth limitations | lag phase [2]: longer lag phase | growth tolerance [3]: without showing significant growth limitations
